Measurements: patent US9113629B2, “4-amino-6-(4-substituted-phenyl)-picolinates and 6-amino-2-(4-substituted-phenyl)-pyrimidine-4-carboxylates and their use as herbicides” (DOW AGROSCIENCES LLC, priority 2013, dated 2015)

The molecules below were run on Key Broadleaf Weed and Crop Species (assay: Post-emergent Test II herbicidal activity (Table 5)). Details: post-emergence, 336 h; ABUTH: velvetleaf (Abutilon theophrasti); 70 g ai/ha; post-emergent; 14 days after application; read-out: Visual Growth Reduction (%) 14 Days After Application ABUTH.
Type: in vivo
Summary of the method: (§1)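 Spray rates: a highest rate plus ½×, ¼×, ⅛×, 1/16×, all delivered at 187 L/ha to plants at the first–second true leaf stage. Readout is a visual percent injury score at 14 d, where 100 means complete kill.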

| SMILES | pest or weed control at 70 g/ha |
| --- | --- |
| C#Cc1ccc(-c2nc(C(=O)O)c(C=C)c(N)c2F)cc1 [Compound 36] | 0 to 29% |

Same assay, conditions: post-emergence, 336 h; ABUTH: velvetleaf (Abutilon theophrasti); 140 g ai/ha; post-emergent; 14 days after application; read-out: Visual Growth Reduction (%) 14 Days After Application ABUTH

| SMILES | pest or weed control at 140 g/ha |
| --- | --- |
| C#Cc1ccc(-c2nc(C(=O)O)c(C=C)c(N)c2F)cc1 [Compound 36] | 0 to 29% |

Same assay, conditions: post-emergence, 336 h; AMARE: redroot pigweed (Amaranthus retroflexus); 70 g ai/ha; post-emergent; 14 days after application; read-out: Visual Growth Reduction (%) 14 Days After Application AMARE

| SMILES | pest or weed control at 70 g/ha |
| --- | --- |
| C#Cc1ccc(-c2nc(C(=O)O)c(C=C)c(N)c2F)cc1 [Compound 36] | 95 to 100% |

Same assay, conditions: post-emergence, 336 h; AMARE: redroot pigweed (Amaranthus retroflexus); 140 g ai/ha; post-emergent; 14 days after application; read-out: Visual Growth Reduction (%) 14 Days After Application AMARE

| SMILES | pest or weed control at 140 g/ha |
| --- | --- |
| C#Cc1ccc(-c2nc(C(=O)O)c(C=C)c(N)c2F)cc1 [Compound 36] | 95 to 100% |

Same assay, conditions: post-emergence, 336 h; BRSNN: oilseed-rape, canola (Brassica napus); 70 g ai/ha; post-emergent; 14 days after application; read-out: Visual Growth Reduction (%) 14 Days After Application BRSNN

| SMILES | pest or weed control at 70 g/ha |
| --- | --- |
| C#Cc1ccc(-c2nc(C(=O)O)c(C=C)c(N)c2F)cc1 [Compound 36] | 0 to 29% |

Same assay, conditions: post-emergence, 336 h; BRSNN: oilseed-rape, canola (Brassica napus); 140 g ai/ha; post-emergent; 14 days after application; read-out: Visual Growth Reduction (%) 14 Days After Application BRSNN

| SMILES | pest or weed control at 140 g/ha |
| --- | --- |
| C#Cc1ccc(-c2nc(C(=O)O)c(C=C)c(N)c2F)cc1 [Compound 36] | 0 to 29% |

Same assay, conditions: post-emergence, 336 h; CHEAL: lambsquarters (Chenopodium album); 70 g ai/ha; post-emergent; 14 days after application; read-out: Visual Growth Reduction (%) 14 Days After Application CHEAL

| SMILES | pest or weed control at 70 g/ha |
| --- | --- |
| C#Cc1ccc(-c2nc(C(=O)O)c(C=C)c(N)c2F)cc1 [Compound 36] | 85 to 94% |

Same assay, conditions: post-emergence, 336 h; CHEAL: lambsquarters (Chenopodium album); 140 g ai/ha; post-emergent; 14 days after application; read-out: Visual Growth Reduction (%) 14 Days After Application CHEAL

| SMILES | pest or weed control at 140 g/ha |
| --- | --- |
| C#Cc1ccc(-c2nc(C(=O)O)c(C=C)c(N)c2F)cc1 [Compound 36] | 85 to 94% |

Same assay, conditions: post-emergence, 336 h; EPHHL: wild poinsettia (Euphorbia heterophylla); 70 g ai/ha; post-emergent; 14 days after application; read-out: Visual Growth Reduction (%) 14 Days After Application EPHHL

| SMILES | pest or weed control at 70 g/ha |
| --- | --- |
| C#Cc1ccc(-c2nc(C(=O)O)c(C=C)c(N)c2F)cc1 [Compound 36] | 95 to 100% |

Same assay, conditions: post-emergence, 336 h; EPHHL: wild poinsettia (Euphorbia heterophylla); 140 g ai/ha; post-emergent; 14 days after application; read-out: Visual Growth Reduction (%) 14 Days After Application EPHHL

| SMILES | pest or weed control at 140 g/ha |
| --- | --- |
| C#Cc1ccc(-c2nc(C(=O)O)c(C=C)c(N)c2F)cc1 [Compound 36] | 95 to 100% |

Same assay, conditions: post-emergence, 336 h; HELAN: sunflower (Helianthus annuus); 70 g ai/ha; post-emergent; 14 days after application; read-out: Visual Growth Reduction (%) 14 Days After Application HELAN

| SMILES | pest or weed control at 70 g/ha |
| --- | --- |
| C#Cc1ccc(-c2nc(C(=O)O)c(C=C)c(N)c2F)cc1 [Compound 36] | 85 to 94% |

Same assay, conditions: post-emergence, 336 h; HELAN: sunflower (Helianthus annuus); 140 g ai/ha; post-emergent; 14 days after application; read-out: Visual Growth Reduction (%) 14 Days After Application HELAN

| SMILES | pest or weed control at 140 g/ha |
| --- | --- |
| C#Cc1ccc(-c2nc(C(=O)O)c(C=C)c(N)c2F)cc1 [Compound 36] | 85 to 94% |

Same assay, conditions: post-emergence, 336 h; VIOTR: wild pansy (Viola tricolor); 70 g ai/ha; post-emergent; 14 days after application; read-out: Visual Growth Reduction (%) 14 Days After Application VIOTR

| SMILES | pest or weed control at 70 g/ha |
| --- | --- |
| C#Cc1ccc(-c2nc(C(=O)O)c(C=C)c(N)c2F)cc1 [Compound 36] | 0 to 29% |

Same assay, conditions: post-emergence, 336 h; VIOTR: wild pansy (Viola tricolor); 140 g ai/ha; post-emergent; 14 days after application; read-out: Visual Growth Reduction (%) 14 Days After Application VIOTR

| SMILES | pest or weed control at 140 g/ha |
| --- | --- |
| C#Cc1ccc(-c2nc(C(=O)O)c(C=C)c(N)c2F)cc1 [Compound 36] | 0 to 29% |

Each molecule was assayed on Key Grass and Sedge Weeds as well as Grass Crops (assay: Post-emergent Test II herbicidal activity (Table 6)). Details: Triticum aestivum, post-emergence, 336 h, TRZSS (wheat), application rate 70 g ai/ha, read-out: Visual Growth Reduction (%) 14 Days After Application, TRZSS.
Type: in vivo
Summary of the method: as §1

| SMILES | pest or weed control at 70 g/ha |
| --- | --- |
| C#Cc1ccc(-c2nc(C(=O)O)c(C=C)c(N)c2F)cc1 [Compound 36] | 45 to 59% |

Same assay, conditions: Triticum aestivum, post-emergence, 336 h, TRZSS (wheat), application rate 140 g ai/ha, read-out: Visual Growth Reduction (%) 14 Days After Application, TRZSS

| SMILES | pest or weed control at 140 g/ha |
| --- | --- |
| C#Cc1ccc(-c2nc(C(=O)O)c(C=C)c(N)c2F)cc1 [Compound 36] | 45 to 59% |

Same assay, conditions: post-emergence, 336 h, CYPES: yellow nutsedge (Cyperus esculentus), application rate 70 g ai/ha, read-out: Visual Growth Reduction (%) 14 Days After Application, CYPES

| SMILES | pest or weed control at 70 g/ha |
| --- | --- |
| C#Cc1ccc(-c2nc(C(=O)O)c(C=C)c(N)c2F)cc1 [Compound 36] | 0 to 29% |

Same assay, conditions: post-emergence, 336 h, CYPES: yellow nutsedge (Cyperus esculentus), application rate 140 g ai/ha, read-out: Visual Growth Reduction (%) 14 Days After Application, CYPES

| SMILES | pest or weed control at 140 g/ha |
| --- | --- |
| C#Cc1ccc(-c2nc(C(=O)O)c(C=C)c(N)c2F)cc1 [Compound 36] | 95 to 100% |

Same assay, conditions: post-emergence, 336 h, DIGSA: crabgrass (Digitaria sanguinalis), application rate 70 g ai/ha, read-out: Visual Growth Reduction (%) 14 Days After Application, DIGSA

| SMILES | pest or weed control at 70 g/ha |
| --- | --- |
| C#Cc1ccc(-c2nc(C(=O)O)c(C=C)c(N)c2F)cc1 [Compound 36] | 0 to 29% |

Same assay, conditions: post-emergence, 336 h, DIGSA: crabgrass (Digitaria sanguinalis), application rate 140 g ai/ha, read-out: Visual Growth Reduction (%) 14 Days After Application, DIGSA

| SMILES | pest or weed control at 140 g/ha |
| --- | --- |
| C#Cc1ccc(-c2nc(C(=O)O)c(C=C)c(N)c2F)cc1 [Compound 36] | 0 to 29% |

Same assay, conditions: post-emergence, 336 h, ECHCG: barnyardgrass (Echinochloa crus-galli), application rate 70 g ai/ha, read-out: Visual Growth Reduction (%) 14 Days After Application, ECHCG

| SMILES | pest or weed control at 70 g/ha |
| --- | --- |
| C#Cc1ccc(-c2nc(C(=O)O)c(C=C)c(N)c2F)cc1 [Compound 36] | 60 to 74% |

Same assay, conditions: post-emergence, 336 h, ECHCG: barnyardgrass (Echinochloa crus-galli), application rate 140 g ai/ha, read-out: Visual Growth Reduction (%) 14 Days After Application, ECHCG

| SMILES | pest or weed control at 140 g/ha |
| --- | --- |
| C#Cc1ccc(-c2nc(C(=O)O)c(C=C)c(N)c2F)cc1 [Compound 36] | 75 to 84% |

Same assay, conditions: post-emergence, 336 h, ORYSA: rice (Oryza sativa), application rate 70 g ai/ha, read-out: Visual Growth Reduction (%) 14 Days After Application, ORYSA

| SMILES | pest or weed control at 70 g/ha |
| --- | --- |
| C#Cc1ccc(-c2nc(C(=O)O)c(C=C)c(N)c2F)cc1 [Compound 36] | 0 to 29% |

Same assay, conditions: post-emergence, 336 h, ORYSA: rice (Oryza sativa), application rate 140 g ai/ha, read-out: Visual Growth Reduction (%) 14 Days After Application, ORYSA

| SMILES | pest or weed control at 140 g/ha |
| --- | --- |
| C#Cc1ccc(-c2nc(C(=O)O)c(C=C)c(N)c2F)cc1 [Compound 36] | 0 to 29% |

Same assay, conditions: post-emergence, 336 h, SETFA: giant foxtail (Setaria faberi), application rate 70 g ai/ha, read-out: Visual Growth Reduction (%) 14 Days After Application, SETFA

| SMILES | pest or weed control at 70 g/ha |
| --- | --- |
| C#Cc1ccc(-c2nc(C(=O)O)c(C=C)c(N)c2F)cc1 [Compound 36] | 0 to 29% |

Same assay, conditions: post-emergence, 336 h, SETFA: giant foxtail (Setaria faberi), application rate 140 g ai/ha, read-out: Visual Growth Reduction (%) 14 Days After Application, SETFA

| SMILES | pest or weed control at 140 g/ha |
| --- | --- |
| C#Cc1ccc(-c2nc(C(=O)O)c(C=C)c(N)c2F)cc1 [Compound 36] | 0 to 29% |

Same assay, conditions: post-emergence, 336 h, SORVU: grain sorghum (Sorghum vulgare), application rate 70 g ai/ha, read-out: Visual Growth Reduction (%) 14 Days After Application, SORVU

| SMILES | pest or weed control at 70 g/ha |
| --- | --- |
| C#Cc1ccc(-c2nc(C(=O)O)c(C=C)c(N)c2F)cc1 [Compound 36] | 60 to 74% |

Same assay, conditions: post-emergence, 336 h, SORVU: grain sorghum (Sorghum vulgare), application rate 140 g ai/ha, read-out: Visual Growth Reduction (%) 14 Days After Application, SORVU

| SMILES | pest or weed control at 140 g/ha |
| --- | --- |
| C#Cc1ccc(-c2nc(C(=O)O)c(C=C)c(N)c2F)cc1 [Compound 36] | 60 to 74% |

Same assay, conditions: post-emergence, 336 h, ZEAMX: maize, corn (Zea mays), application rate 70 g ai/ha, read-out: Visual Growth Reduction (%) 14 Days After Application, ZEAMX

| SMILES | pest or weed control at 70 g/ha |
| --- | --- |
| C#Cc1ccc(-c2nc(C(=O)O)c(C=C)c(N)c2F)cc1 [Compound 36] | 30 to 44% |

Same assay, conditions: post-emergence, 336 h, ZEAMX: maize, corn (Zea mays), application rate 140 g ai/ha, read-out: Visual Growth Reduction (%) 14 Days After Application, ZEAMX

| SMILES | pest or weed control at 140 g/ha |
| --- | --- |
| C#Cc1ccc(-c2nc(C(=O)O)c(C=C)c(N)c2F)cc1 [Compound 36] | 45 to 59% |
